We go through 14 molecules from patent publication US20180243298A1, “TRPV3 MODULATORS” (AbbVie Inc., priority 2015, published 2018).

The assay has as its target T1, human TRPV3 (Homo sapiens, UniProt Q8NET8).
T1 construct: expressed in transfected cells; host or cells: HEK293
T1 sequence (Q8NET8 1-790): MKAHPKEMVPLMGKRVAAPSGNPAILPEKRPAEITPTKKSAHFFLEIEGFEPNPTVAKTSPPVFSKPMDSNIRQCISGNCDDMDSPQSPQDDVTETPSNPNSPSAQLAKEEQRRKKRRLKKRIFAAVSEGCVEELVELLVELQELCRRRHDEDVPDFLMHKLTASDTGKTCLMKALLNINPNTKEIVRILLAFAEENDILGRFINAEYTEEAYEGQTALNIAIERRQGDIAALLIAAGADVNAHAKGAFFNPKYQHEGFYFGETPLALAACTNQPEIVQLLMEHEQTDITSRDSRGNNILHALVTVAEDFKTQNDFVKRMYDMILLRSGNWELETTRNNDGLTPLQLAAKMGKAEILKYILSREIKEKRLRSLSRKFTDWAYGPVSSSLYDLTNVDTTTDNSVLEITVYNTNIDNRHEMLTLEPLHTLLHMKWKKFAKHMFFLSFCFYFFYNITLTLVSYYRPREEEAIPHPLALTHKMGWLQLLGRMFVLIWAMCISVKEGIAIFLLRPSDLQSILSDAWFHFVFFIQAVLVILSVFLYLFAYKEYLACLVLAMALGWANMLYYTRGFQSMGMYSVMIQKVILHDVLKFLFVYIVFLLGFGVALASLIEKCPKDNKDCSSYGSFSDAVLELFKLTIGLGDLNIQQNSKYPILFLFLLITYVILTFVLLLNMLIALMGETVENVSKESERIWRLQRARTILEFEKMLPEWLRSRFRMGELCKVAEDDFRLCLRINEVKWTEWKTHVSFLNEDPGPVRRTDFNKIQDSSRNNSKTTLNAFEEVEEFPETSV
Briefly: Calcium flux assay (FLIPR TETRA), recombinant HEK293 cells expressing TRPV3, 2-APB response. Format: cell-based. As to conditions: 2-APB at its EC80. The procedure, abridged:
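HEK293 cells stably expressing human or mouse TRPV3, loaded with Calcium-4 dye for 90–120 min, read on FLIPR TETRA. Peak fluorescence rise over baseline expressed as percent of the maximal response to 2-APB at its EC80 without compound.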

Consider `COc1ncnc(OC)c1C(=O)Nc1nc(C(F)(F)F)c(-c2ccc(F)nc2)s1` [Example 8, N-[5-(6-fluoropyridin-3-yl)-4-(trifluoromethyl)-1,3-thiazol-2-yl]-4,6-dimethoxypyrimidine-5-carboxamide], for which the IC50 lay within 50 to 100 nM.

For `COc1ncnc(OC)c1C(=O)Nc1nc(C(F)(F)F)c(C(C)(O)c2ccccn2)s1` (centres unmarked) [Example 129, N-{5-[1-hydroxy-1-(pyridin-2-yl)ethyl]-4-(trifluoromethyl)-1,3-thiazol-2-yl}-4,6-dimethoxypyrimidine-5-carboxamide], the IC50 was > 1000 nM.

In the case of `COc1ncnc(OC)c1C(=O)Nc1nc(C(F)(F)F)c(-c2cn(C)nc2C(F)(F)F)s1` [Example 186, 4,6-dimethoxy-N-{5-[1-methyl-3-(trifluoromethyl)-1H-pyrazol-4-yl]-4-(trifluoromethyl)-1,3-thiazol-2-yl}pyrimidine-5-carboxamide], the half-maximal inhibitory concentration (IC50) was < 50 nM.

Turning to `COc1ncnc(OC)c1C(=O)Nc1nc(C2CCC(F)(F)CC2)cs1` [Example 99, N-[4-(4,4-difluorocyclohexyl)-1,3-thiazol-2-yl]-4,6-dimethoxypyrimidine-5-carboxamide], the IC50 lay in the range of 100 to 500 nM.

Consider `COc1ncnc(OC)c1C(=O)Nc1nc(C(F)(F)F)c(C)s1` [Example 1, 4,6-dimethoxy-N-[5-methyl-4-(trifluoromethyl)-1,3-thiazol-2-yl]pyrimidine-5-carboxamide], for which the IC50 lay in the range of 50 to 100 nM.

For the molecule `CCCc1sc(NC(=O)c2c(OC)ncnc2OC)nc1C(F)(F)F` [Example 34, 4,6-dimethoxy-N-[5-propyl-4-(trifluoromethyl)-1,3-thiazol-2-yl]pyrimidine-5-carboxamide], the IC50 is < 50 nM.

On to `COc1ncnc(OC)c1C(=O)Nc1nc(C(F)(F)F)c(CN(C)C(C)(C)C)s1` [Example 55, N-[5-{[tert-butyl(methyl)amino]methyl}-4-(trifluoromethyl)-1,3-thiazol-2-yl]-4,6-dimethoxypyrimidine-5-carboxamide], for which the IC50 lay within 100 to 500 nM.

As to `COc1nc(C#N)nc(C(F)(F)F)c1C(=O)Nc1nc(C(F)(F)F)c(I)s1` [Example 161, 2-cyano-N-[5-iodo-4-(trifluoromethyl)-1,3-thiazol-2-yl]-4-methoxy-6-(trifluoromethyl)pyrimidine-5-carboxamide], the IC50 fell in the range of 100 to 500 nM.

For `COc1ncnc(OC)c1C(=O)Nc1nc(C(F)(F)F)c(-c2cnc(C#N)nc2)s1` [Example 162, N-[5-(2-cyanopyrimidin-5-yl)-4-(trifluoromethyl)-1,3-thiazol-2-yl]-4,6-dimethoxypyrimidine-5-carboxamide], the IC50 fell in the range of 100 to 500 nM.

In the case of `COc1ncnc(OC)c1C(=O)Nc1nc(C(F)(F)F)c(C(O)C(C)(C)C)s1` (centres unmarked) [Example 123, N-[5-(1-hydroxy-2,2-dimethylpropyl)-4-(trifluoromethyl)-1,3-thiazol-2-yl]-4,6-dimethoxypyrimidine-5-carboxamide], the IC50 was 100 to 500 nM.

For `COc1ncnc(OC)c1C(=O)Nc1nc(-c2ccc(C(F)(F)F)cn2)c(CCCO)s1` [Example 96, N-{5-(3-hydroxypropyl)-4-[5-(trifluoromethyl)pyridin-2-yl]-1,3-thiazol-2-yl}-4,6-dimethoxypyrimidine-5-carboxamide], the IC50 was 100 to 500 nM.

In the case of `CCOc1ncnc(OCC)c1C(=O)Nc1nc(C(F)(F)F)c(-c2ccc(Cl)cc2)s1` [Example 5, N-[5-(4-chlorophenyl)-4-(trifluoromethyl)-1,3-thiazol-2-yl]-4,6-diethoxypyrimidine-5-carboxamide], the concentration for half-maximal inhibition (IC50) is 500 to 1000 nM.

Take `COc1ncnc(OC)c1C(=O)Nc1nc(C(F)(F)F)c(-c2cc3ncccc3o2)s1` [Example 187, N-[5-(furo[3,2-b]pyridin-2-yl)-4-(trifluoromethyl)-1,3-thiazol-2-yl]-4,6-dimethoxypyrimidine-5-carboxamide]: the 50% inhibitory concentration (IC50) lay within 100 to 500 nM.

As for `COc1ncnc(OC)c1C(=O)Nc1nc(CCOc2ccc(F)cc2)cs1` [Example 178, N-{4-[2-(4-fluorophenoxy)ethyl]-1,3-thiazol-2-yl}-4,6-dimethoxypyrimidine-5-carboxamide], the 50% inhibitory concentration (IC50) was in the range of 500 to 1000 nM.
